Measured values as given in BindingDB's records for doi:10.1007/bfb0000613 (German Institute of Human Nutrition, 1998).
Several values for one entry are separate records, joined by “and”; a condition that tells them apart may be missing. Identical values can stand only once. *1 amine or outer side, *2 acyl side, *3 side chain or, on linkers, in order; H or OH if unused. Where a SMILES comes first, the peptide text is derived from it. Bridges are numbered along the chain shown (N, C = ends). [ ]: non-standard residue; d: D form. ξ: configuration not given here. Phe(4-CH2NHiPr) = CC(C)NCc1ccc(C[C@H](N)C(=O)O)cc1; X2 = CC(C)NCc1ccc(C[C@@H](N[*:1])C(=O)[*:2])cc1; d1Nal = N[C@H](Cc1cccc2ccccc12)C(=O)O; Thr(3ξ) = CC(O)[C@H](N)C(=O)O; ξF = NC(Cc1ccccc1)C(=O)O; ξK = NCCCCC(N)C(=O)O; ξT = CC(O)C(N)C(=O)O; Ahp = NCCCCCCC(=O)O

Legend:
[1] = molecular target: Somatostatin receptor type 2 (Mus musculus, UniProt P30875)
Somatostatin receptor type 2 (Mus musculus, UniProt P30875), sequence (P30875 whole entry): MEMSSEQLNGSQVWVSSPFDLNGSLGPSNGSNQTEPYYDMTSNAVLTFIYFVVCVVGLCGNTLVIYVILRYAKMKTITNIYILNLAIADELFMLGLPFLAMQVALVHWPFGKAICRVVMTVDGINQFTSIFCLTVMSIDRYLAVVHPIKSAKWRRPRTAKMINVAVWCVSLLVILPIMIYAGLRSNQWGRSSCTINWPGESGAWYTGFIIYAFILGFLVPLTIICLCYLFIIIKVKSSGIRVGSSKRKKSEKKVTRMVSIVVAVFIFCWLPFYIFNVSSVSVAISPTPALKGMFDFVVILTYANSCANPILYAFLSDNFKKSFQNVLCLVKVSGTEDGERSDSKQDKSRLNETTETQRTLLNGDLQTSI

[2] = molecular target: Somatostatin receptor type 2 (Rattus norvegicus, UniProt P30680)
Somatostatin receptor type 2 (Rattus norvegicus, UniProt P30680), sequence (P30680 whole entry): as the sequence (P30875 whole entry) above, with M3L, S4T, L8F, V15I, S16P, C168G, T335A counted along it

[3] = molecular target: Somatostatin receptor type 3 (Rattus norvegicus, UniProt P30936)
Somatostatin receptor type 3, sequence (P30936 whole entry): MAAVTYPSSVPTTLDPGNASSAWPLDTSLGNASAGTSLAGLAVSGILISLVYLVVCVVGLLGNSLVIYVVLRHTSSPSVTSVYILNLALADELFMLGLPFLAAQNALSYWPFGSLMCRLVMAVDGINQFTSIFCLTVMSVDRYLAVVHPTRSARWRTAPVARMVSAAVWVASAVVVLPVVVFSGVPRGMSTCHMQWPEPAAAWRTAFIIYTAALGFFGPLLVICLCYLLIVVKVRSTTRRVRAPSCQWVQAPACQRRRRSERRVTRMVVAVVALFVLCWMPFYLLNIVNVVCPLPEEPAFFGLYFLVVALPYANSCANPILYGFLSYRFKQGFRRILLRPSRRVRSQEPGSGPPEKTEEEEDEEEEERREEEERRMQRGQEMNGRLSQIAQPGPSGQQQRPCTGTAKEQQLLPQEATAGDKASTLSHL

[4] = molecular target: T1, Somatostatin receptor type 5 (Rattus norvegicus, UniProt P30938)
T1 sequence (P30938 whole entry): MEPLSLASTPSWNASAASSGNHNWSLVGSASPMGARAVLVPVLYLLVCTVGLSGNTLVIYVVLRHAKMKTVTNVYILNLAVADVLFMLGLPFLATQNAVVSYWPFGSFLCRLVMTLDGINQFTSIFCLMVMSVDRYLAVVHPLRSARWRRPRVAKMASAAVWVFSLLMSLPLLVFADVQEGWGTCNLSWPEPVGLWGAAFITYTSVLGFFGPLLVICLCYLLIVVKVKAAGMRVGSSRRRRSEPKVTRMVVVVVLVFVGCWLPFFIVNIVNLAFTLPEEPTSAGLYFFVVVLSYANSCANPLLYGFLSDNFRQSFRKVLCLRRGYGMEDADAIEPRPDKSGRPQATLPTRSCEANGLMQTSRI

[5] = molecular target: Somatostatin receptor type 5 (Homo sapiens, UniProt P35346)
Somatostatin receptor type 5 (Homo sapiens, UniProt P35346), sequence (P35346 whole entry): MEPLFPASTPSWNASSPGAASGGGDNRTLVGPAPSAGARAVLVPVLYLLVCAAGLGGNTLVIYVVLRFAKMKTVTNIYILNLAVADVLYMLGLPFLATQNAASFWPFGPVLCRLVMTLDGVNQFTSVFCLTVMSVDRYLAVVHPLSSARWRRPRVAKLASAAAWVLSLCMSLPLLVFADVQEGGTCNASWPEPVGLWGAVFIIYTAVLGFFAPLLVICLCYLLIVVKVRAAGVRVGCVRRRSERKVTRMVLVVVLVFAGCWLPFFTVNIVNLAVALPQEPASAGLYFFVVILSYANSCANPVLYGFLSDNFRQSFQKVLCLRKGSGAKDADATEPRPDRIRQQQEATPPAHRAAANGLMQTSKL

[6] = molecular target: Somatostatin receptor type 1 (Homo sapiens, UniProt P30872)
Somatostatin receptor type 1, sequence (P30872 whole entry): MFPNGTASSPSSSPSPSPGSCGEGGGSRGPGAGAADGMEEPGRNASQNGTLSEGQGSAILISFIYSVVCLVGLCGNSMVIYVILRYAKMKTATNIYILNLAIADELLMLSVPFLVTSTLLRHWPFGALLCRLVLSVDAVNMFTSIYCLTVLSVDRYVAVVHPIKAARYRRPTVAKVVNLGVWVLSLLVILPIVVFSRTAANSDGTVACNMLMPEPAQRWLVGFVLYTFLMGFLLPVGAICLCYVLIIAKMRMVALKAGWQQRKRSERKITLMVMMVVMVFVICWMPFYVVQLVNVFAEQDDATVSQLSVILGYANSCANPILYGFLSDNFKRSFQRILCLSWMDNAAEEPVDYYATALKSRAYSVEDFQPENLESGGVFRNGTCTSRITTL

[7] = molecular target: Somatostatin receptor type 4 (Homo sapiens, UniProt P31391)
Somatostatin receptor type 4, sequence (P31391 whole entry): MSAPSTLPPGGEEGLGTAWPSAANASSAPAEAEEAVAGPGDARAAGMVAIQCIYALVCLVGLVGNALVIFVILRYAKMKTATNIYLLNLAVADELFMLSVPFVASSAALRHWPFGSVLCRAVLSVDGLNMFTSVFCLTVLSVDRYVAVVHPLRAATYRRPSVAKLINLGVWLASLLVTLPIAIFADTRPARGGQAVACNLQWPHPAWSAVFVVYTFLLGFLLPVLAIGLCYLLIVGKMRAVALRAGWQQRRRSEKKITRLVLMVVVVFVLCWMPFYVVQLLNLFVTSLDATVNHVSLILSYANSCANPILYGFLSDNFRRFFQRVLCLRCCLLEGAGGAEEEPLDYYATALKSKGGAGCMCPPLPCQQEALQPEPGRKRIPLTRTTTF

[8] = molecular target: Somatostatin receptor type 2 (Homo sapiens, UniProt P30874)
Somatostatin receptor type 2 (Homo sapiens, UniProt P30874), sequence (P30874 whole entry): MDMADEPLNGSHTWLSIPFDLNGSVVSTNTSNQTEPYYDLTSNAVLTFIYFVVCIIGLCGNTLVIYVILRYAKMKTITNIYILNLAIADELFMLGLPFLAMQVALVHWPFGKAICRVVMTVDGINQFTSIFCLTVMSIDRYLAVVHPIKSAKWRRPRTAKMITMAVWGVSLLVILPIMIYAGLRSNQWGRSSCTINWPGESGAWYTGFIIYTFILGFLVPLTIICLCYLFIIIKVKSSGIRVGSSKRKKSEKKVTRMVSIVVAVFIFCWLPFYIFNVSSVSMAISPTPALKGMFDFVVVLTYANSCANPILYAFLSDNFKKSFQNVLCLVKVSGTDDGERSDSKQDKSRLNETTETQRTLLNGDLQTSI

Ki [1] | Ki [2] [nM] | Ki [3] [nM] | Ki [4] [nM] | Ki [5] [nM] | Ki [6] | Ki [7] [nM] | Ki [8] [nM] | SMILES
11.9 nM and 5.58 nM | 69 | 3.5 | 2.4 | – | – | – | – | C[C@@H](O)[C@H](NC(=O)[C@H](Cc1ccccc1)NC(=O)[C@@H](NC(=O)[C@H](CCCCN)NC(=O)[C@@H](Cc1c[nH]c2ccccc12)NC(=O)[C@H](Cc1ccccc1)NC(=O)[C@H](Cc1ccccc1)NC(=O)[C@H](N)Cc1ccccc1)[C@@H](C)O)C(N)=O [CAS_133073-82-2] (H-[dF]FF[dW]KTFT-NH2)
– | 0.48 | 45 | – | 15.5 | – | – | – | CC(C)[C@@H]1NC(=O)[C@H](CCCCN)NC(=O)[C@@H](Cc2c[nH]c3ccccc23)NC(=O)[C@H](Cc2ccc(O)cc2)NC(=O)[C@H](C)N(C)C(=O)[C@H](Cc2ccccc2)NC1=O [CAS_3086456]
– | 0.85 | 87 | – | – | 481 nM | 351 | – | CC(C)[C@@H]1NC(=O)[C@H](CCCCN)NC(=O)[C@@H](Cc2c[nH]c3ccccc23)NC(=O)[C@H](Cc2ccc(O)cc2)NC(=O)[C@@H](NC(=O)[C@H](N)Cc2ccccc2)CSSC[C@@H](C(=O)N[C@@H](Cc2c[nH]c3ccccc23)C(N)=O)NC1=O [CAS_71306] (H-[dF]CY[dW]KVCW-NH2; disulfide 2-7)
1.49 nM and 11 nM | 101 | 4.1 | – | 2.18 | 582 nM | – | – | C[C@@H](O)[C@@H]1NC(=O)[C@H](CCCCN)NC(=O)[C@@H](Cc2c[nH]c3ccccc23)NC(=O)[C@H](Cc2ccccc2)NC(=O)[C@H](Cc2ccccc2)NC(=O)[C@H](N)CSSC[C@H](C(N)=O)NC(=O)[C@H](Cc2ccccc2)NC1=O
– | – | – | 632 | – | – | – | – | CC(C)NCc1ccc(C[C@H]2NC(=O)[C@H](Cc3c[nH]c4ccccc34)NC(=O)C(Cc3ccccc3)NC(=O)C(Cc3ccccc3)NC(=O)C(CCCCN)NC(=O)[C@H](N)CSSC[C@H](C(=O)O)NC(=O)[C@@H](CO)NC(=O)[C@H](C(C)O)NC(=O)[C@@H](Cc3ccccc3)NC(=O)C(C(C)O)NC2=O)cc1 (some centres not stated) [CH-275] (H-[dC][ξK][ξF][ξF]W[X2][ξT][dF][Thr(3ξ)][dS][dC]-OH; disulfide 1-11)
– | 45 | 11.2 | 9.88 | 0.27 | 151 nM | 55.3 | – | CC(O)[C@@H](NC(=O)[C@H](CCCCN)NC(=O)[C@@H](Cc1c[nH]c2ccccc12)NC(=O)[C@H](Cc1ccccc1)NC(=O)C(Cc1ccccc1)NC(=O)C(N)CS)C(=O)NC(Cc1ccccc1)C(=O)NC(CS)C(N)=O (some centres not stated) [BIM 23313]
– | – | – | 72 | – | – | – | – | CC(C)C1NC(=O)C(CCCCN)NC(=O)C(Cc2c[nH]c3ccccc23)NC(=O)C(Cc2ccc(O)cc2)NC(=O)C(C)N(C)C(=O)C(Cc2ccccc2)NC1=O (configuration not stated) [CAS_3086456]
1000 nM | – | – | – | – | 1.8 nM and 4.9 nM | 874 | 1000 | CC(C)NCc1ccc(C[C@@H]2NC(=O)[C@@H](Cc3c[nH]c4ccccc34)NC(=O)[C@H](Cc3ccccc3)NC(=O)[C@H](Cc3ccccc3)NC(=O)[C@H](CCCCN)NC(=O)[C@@H](N)CSSC[C@@H](C(=O)O)NC(=O)[C@H](CO)NC(=O)[C@H]([C@@H](C)O)NC(=O)[C@H](Cc3ccccc3)NC(=O)[C@H]([C@@H](C)O)NC2=O)cc1 [CH-275] (H-CKFF[dW][Phe(4-CH2NHiPr)]TFTSC-OH; disulfide 1-11)
– | 57 | 5.7 | 0.65 | 0.34 | 86.8 nM | 3.36 | – | CC(O)[C@@H](NC(=O)[C@H](CCCCN)NC(=O)[C@@H](Cc1c[nH]c2ccccc12)NC(=O)[C@H](Cc1ccc(O)cc1)NC(=O)C(Cc1ccccc1)NC(=O)C(N)CS)C(=O)NC(Cc1ccccc1)C(=O)NC(CS)C(N)=O (some centres not stated) [BIM 23295]
– | 12 | 33 | 51 | 0.76 | – | 467 | – | C[C@@H](O)[C@@H]1NC(=O)[C@H](CCCCN)NC(=O)[C@@H](Cc2c[nH]c3ccccc23)NC(=O)[C@H](Cc2c[nH]c3ccccc23)NC(=O)[C@H](Cc2ccccc2)NC(=O)CCCCCCNC(=O)[C@H](Cc2ccccc2)NC1=O [L-362855] (cyclo([Ahp]FW[dW]KTF))

More lines, now with the values behind:

SMILES | Ki [1] | Ki [2] [nM] | Ki [3] [nM] | Ki [4] [nM] | Ki [5] [nM] | Ki [6] | Ki [7] [nM] | Ki [8] [nM]
CC(O)[C@H](CO)NC(=O)[C@@H]1CSSCC(NC(=O)C(N)Cc2ccccc2)C(=O)N[C@H](Cc2ccccc2)C(=O)N[C@H](Cc2c[nH]c3ccccc23)C(=O)N[C@H](CCCCN)C(=O)N[C@H](C(C)O)C(=O)N1 (some centres not stated) | – | – | – | 17 | – | – | – | –
CC(C)[C@@H]1NC(=O)[C@H](CCCCN)NC(=O)[C@@H](Cc2c[nH]c3ccccc23)NC(=O)[C@H](Cc2ccc(O)cc2)NC(=O)[C@@H](NC(=O)[C@H](N)Cc2ccc3ccccc3c2)CSSC[C@@H](C(=O)N[C@H](C(N)=O)[C@@H](C)O)NC1=O [3-(2-Naphtyl)-D-Ala-L-Cys(1)-L-Tyr-D-Trp-L-Lys-L-Val-L-Cys(1)-L-Thr-NH2] | – | 1.47 | 115 | 23 | – | – | – | –
CSCC[C@H](NC(=O)[C@H](C)NC(=O)[C@@H]1CCCN1C(=O)[C@H](CC(N)=O)NC(=O)[C@H](CO)NC(=O)[C@H](CC(N)=O)NC(=O)[C@H](C)NC(=O)[C@@H](N)CO)C(=O)N[C@@H](C)C(=O)N1CCC[C@H]1C(=O)N[C@@H](CCCNC(=N)N)C(=O)N[C@@H](CCC(=O)O)C(=O)N[C@@H](CCCNC(=N)N)C(=O)N[C@@H](CCCCN)C(=O)N[C@@H](C)C(=O)NCC(=O)N[C@H]1CSSC[C@@H](C(=O)O)NC(=O)[C@H](CO)NC(=O)[C@H]([C@@H](C)O)NC(=O)[C@H](Cc2ccccc2)NC(=O)[C@H]([C@@H](C)O)NC(=O)[C@H](CCCCN)NC(=O)[C@H](Cc2c[nH]c3ccccc23)NC(=O)[C@H](Cc2ccccc2)NC(=O)[C@H](Cc2ccccc2)NC(=O)[C@H](CC(N)=O)NC(=O)[C@H](CCCCN)NC1=O [L-Ser-L-Ala-L-Asn-L-Ser-L-Asn-L-Pro-L-Ala-L-Met-L-Ala-L-Pro-L-Arg-L-Glu-L-Arg-L-Lys-L-Ala-Gly-L-Cys(1)-L-Lys-L-Asn-L-Phe-L-Phe-L-Trp-L-Lys-L-Thr-L-Phe-L-Thr-L-Ser-L-Cys(1)-OH] | – | – | 0.81 | – | – | – | – | –
CC[C@@H]1NC(=O)[C@H](CCCCN)NC(=O)[C@@H](Cc2c[nH]c3ccccc23)NC(=O)[C@H](Cc2ccc(O)cc2)NC(=O)[C@@H](NC(=O)[C@H](N)Cc2ccccc2)CSSC[C@@H](C(=O)N[C@H](C(N)=O)[C@@H](C)O)NC1=O [D-Phe-L-Cys(1)-L-Tyr-D-Trp-L-Lys-L-Abu-L-Cys(1)-L-Thr-NH2] | – | 0.57 | 92 | 14 | – | – | – | –
C[C@@H](O)[C@@H]1NC(=O)[C@H](CCCCN)NC(=O)[C@@H](Cc2c[nH]c3ccccc23)NC(=O)[C@H](Cc2ccccc2)NC(=O)[C@@H](NC(=O)[C@H](N)Cc2ccccc2)CSSC[C@@H](C(=O)N[C@H](CO)[C@@H](C)O)NC1=O | – | – | 14 | – | – | – | – | –
CC(O)[C@H]1NC(=O)[C@H](CCCCN)NC(=O)[C@H](Cc2c[nH]c3ccccc23)NC(=O)[C@H](Cc2ccccc2)NC(=O)[C@@H](Cc2ccccc2)NC(=O)[C@H](N)CSSC[C@H](C(N)=O)NC(=O)[C@H](Cc2ccccc2)NC1=O (some centres not stated) | – | – | – | 3.4 | – | – | – | –
CC(C)[C@H](NC(=O)[C@H](CCCCN)NC(=O)[C@@H](Cc1c[nH]c2ccccc12)NC(=O)[C@H](Cc1ccc(O)cc1)NC(=O)[C@H](Cc1ccccc1)NC(=O)[C@@H](N)Cc1ccccc1)C(=O)N[C@@H](Cc1ccccc1)C(=O)N[C@H](Cc1cccc2ccccc12)C(N)=O [BIM 23056] (H-FFY[dW]KVF[d1Nal]-NH2) | – | – | – | 536 | – | – | – | –
CC(C)[C@H](NC(=O)[C@H](CCCCN)NC(=O)[C@@H](Cc1c[nH]c2ccccc12)NC(=O)[C@H](Cc1ccc(O)cc1)NC(=O)[C@H](Cc1ccccc1)NC(=O)[C@H](N)Cc1ccccc1)C(=O)N[C@@H](Cc1ccccc1)C(=O)N[C@H](Cc1cccc2ccccc12)C(N)=O [BIM 23056] (H-[dF]FY[dW]KVF[d1Nal]-NH2) | 132 nM | 3400 | 272 | – | 12 | 692 nM | 174 | –
CC(C)C1NC(=O)C(CCCCN)NC(=O)C(Cc2c[nH]c3ccccc23)NC(=O)C(Cc2ccc(O)cc2)NC(=O)C(NC(=O)C(N)Cc2ccccc2)CSSCC(C(=O)NC(Cc2c[nH]c3ccccc23)C(N)=O)NC1=O (configuration not stated) [CAS_71306] (H-FCYWKVCW-NH2; disulfide 2-7; configuration not given here) | – | – | – | 6.8 | – | – | – | –
